# Laboratory results: PMC6476928 (Frontiers in Pharmacology, 2019)
# Positions count from the first letter of the chain named. pIC50: −log10 of the molar value.
# What was measured:
# Kv4.2 I275A = assay: Patch clamp of Kv4.2 mutant I275A in HEK293T cells; assay type: cell-based
# From the text: (§1) All data points are shown as mean SEM.
# [1] = system: A-type potassium channels in DRG cells; settings: ref Zeng et al., 2008; read-out: IC50, block of A-type potassium channels in DRG cells; cited from earlier work
# Kv4.2 V290A = target: T1, Kv4.2 V290A (Homo sapiens, UniProt Q9NZV8, V290A); assay: Patch clamp of Kv4.2 mutant V290A in HEK293T cells; assay type: cell-based
# T1 construct: expressed in transfected cells; host or cells: HEK293T
# T1 sequence (Q9NZV8 1-630 V290A): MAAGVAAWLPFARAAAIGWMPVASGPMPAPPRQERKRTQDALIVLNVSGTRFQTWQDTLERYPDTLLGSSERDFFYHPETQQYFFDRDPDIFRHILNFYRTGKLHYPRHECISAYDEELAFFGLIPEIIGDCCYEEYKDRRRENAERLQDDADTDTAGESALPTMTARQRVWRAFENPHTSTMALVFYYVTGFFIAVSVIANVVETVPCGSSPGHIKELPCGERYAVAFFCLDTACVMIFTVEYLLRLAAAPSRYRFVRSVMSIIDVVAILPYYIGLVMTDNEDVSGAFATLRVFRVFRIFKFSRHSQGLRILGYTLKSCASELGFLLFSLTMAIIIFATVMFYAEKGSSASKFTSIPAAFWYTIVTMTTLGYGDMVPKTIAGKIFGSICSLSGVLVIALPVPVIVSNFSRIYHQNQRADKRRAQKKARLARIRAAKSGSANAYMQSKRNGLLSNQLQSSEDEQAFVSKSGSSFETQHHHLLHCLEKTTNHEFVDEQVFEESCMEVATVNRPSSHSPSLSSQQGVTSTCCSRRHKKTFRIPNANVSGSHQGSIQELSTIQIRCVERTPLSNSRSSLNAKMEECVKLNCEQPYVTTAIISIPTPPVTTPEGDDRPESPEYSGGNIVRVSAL
# T1 sequence (Q9NS61 1-270 partner): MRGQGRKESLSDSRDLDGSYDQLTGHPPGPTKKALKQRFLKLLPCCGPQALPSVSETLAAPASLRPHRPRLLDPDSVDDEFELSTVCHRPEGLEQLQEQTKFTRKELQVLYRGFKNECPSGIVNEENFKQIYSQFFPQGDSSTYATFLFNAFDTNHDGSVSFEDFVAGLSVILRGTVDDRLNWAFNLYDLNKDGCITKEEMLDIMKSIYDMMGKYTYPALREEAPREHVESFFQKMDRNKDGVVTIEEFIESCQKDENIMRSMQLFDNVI
# Experimental: (§2) Human embryonic kidney cell line (HEK293T) was obtained from Shanghai Institute of Cell Biology, Chinese Academy of Sciences (Shanghai, China) and maintained with 5% CO2 at 37°C in DMEM supplemented with 10% heat-inactivated fetal calf and serum (FBS), penicillin (100 U/ml), and streptomycin (100 μg/ml). The WT/mutant Kv4.2 plasmids were transiently transfected into HEK293T by Lipofectamine^TM 2000 Reagent (Invitrogen), and the KChIP2 subunits were co-transfected with Kv4.2.
# (§3) The extracellular buffer and pipette solution for AP, Ito, and Kv4.2 were used as follows.
# Kv4.2 current, The pipette solution contained (mM) 140 KF, 5 ATP-2Na, 1 EGTA, and 10 HEPEs (pH = 7.4). […] The steady-state activation of Kv4.2 was measured with the holding potential −80 mV and applied from −80 mV to 70 mV (10-mV increments). Steady-state inactivation of Kv4.2 channel measured with a series of a 300-ms depolarizing test potential of 10 mV followed a 1000-ms prepulse at potentials ranging from −120 to +70 mV with a 5-mV increment.
# Data were analyzed using the clampfit (Axon) and Origin 9 software programs. […] The steady-state activation relationship was measured using Boltzmann function (f(V) = 1/{1 + exp[−(V−V1/2)/k]}^4). Steady-state inactivation was measured using the Boltzmann function f(V) = 1/{1 + exp[−(V − V1/2)/k]}.
# Ito1 current of NRVMs = assay: Whole-cell patch clamp of Ito1 current in neonatal rat ventricular myocytes; assay type: cell-based; settings: 100 nM JZTX-V, at 30 mV, holding potential −40 mV, N = 4, mean ± SEM
# From the text: Neonatal rat ventricular myocytes cells were obtained from ventricles of neonatal Sprague–Dawley rats as previously reported ([Sung et al., 2012]; [Yan et al., 2018]). SD rats (Hunan SJA Laboratory Animal Co., Ltd., Changsha, China) were used according to the guidelines of the National Institutes of Health for Care and Use of Laboratory Animals. The experiments were approved by the Animal Care and Use Committee of Hunan Normal University.
# Ito currents, The Ca^2+-currents blocker CdCl2 (200-μmol/L) were used in external solutions. To generate Ito1 current, cells were held at −40 mV to inactivate the fast Na^+ current and then stepped to potentials of −40 mV to +60 mV in 10-mV increments.
# as §1
# Kv4.2 = target: T2, Kv4.2 (Homo sapiens, UniProt Q9NZV8); assay: Whole-cell patch clamp of WT Kv4.2 co-expressed with KChIP2 in HEK293T cells; assay type: cell-based; design: expressed in transfected cells; host or cells: HEK293T
# T2 sequence (Q9NZV8 1-630): T1 sequence (Q9NZV8 1-630 V290A) with A290V
# T2 sequence (Q9NS61 1-270 partner): T1 sequence (Q9NS61 1-270 partner)
# Experimental: as §2, §3
# Kv4.2 current, The pipette solution contained (mM) 140 KF, 5 ATP-2Na, 1 EGTA, and 10 HEPEs (pH = 7.4). […] The Kv4.2 currents were elicited by a 300-ms depolarizing voltage of 10 mV from a holding potential of −80 mV. The steady-state activation of Kv4.2 was measured with the holding potential −80 mV and applied from −80 mV to 70 mV (10-mV increments). Steady-state inactivation of Kv4.2 channel measured with a series of a 300-ms depolarizing test potential of 10 mV followed a 1000-ms prepulse at potentials ranging from −120 to +70 mV with a 5-mV increment.
# Data were analyzed using the clampfit (Axon) and Origin 9 software programs. All data points are shown as mean SEM. The significance was estimated using unpaired two-tailed t-tests, and a P < 0.05 was considered statistically significant. n stands for the number of the separate experimental cells. […] The steady-state activation relationship was measured using Boltzmann function (f(V) = 1/{1 + exp[−(V−V1/2)/k]}^4). Steady-state inactivation was measured using the Boltzmann function f(V) = 1/{1 + exp[−(V − V1/2)/k]}.
# kv4.1 = settings: 5µM, X. laevis oocytes; cited from earlier work
# From the text: Supplement Data_Sheet_1.docx, table 1: Supplementary Table 1.Activity of spider toxins on Kv2 and Kv4 channel subtypes Activities of spider toxins against different subtypes of Kv2 and Kv4 potassium channels are reported as IC50 (nanomolar) or as percentage of current inhibition at a single dose (nanomolar). Affinity (IC50) measurements | column: kv4.1
smiles,measurement,setting,value
"CC[C@H](C)[C@H](NC(=O)[C@@H](NC(=O)[C@H](CCCCN)NC(=O)[C@H](CCCNC(=N)N)NC(=O)[C@@H]1CSSC[C@@H]2NC(=O)[C@H](C)NC(=O)[C@H](CCCNC(=N)N)NC(=O)[C@H](CCCCN)NC(=O)[C@H](CO)NC(=O)[C@H](CC(=O)O)NC(=O)[C@@H]3CSSC[C@H](NC(=O)[C@H](CCCNC(=N)N)NC(=O)[C@H](CC(C)C)NC(=O)CNC(=O)[C@H](CCC(=O)O)NC(=O)[C@H](CSSC[C@H](NC(=O)[C@@H](N)Cc4ccc(O)cc4)C(=O)N[C@@H](CCC(N)=O)C(=O)N[C@@H](CCCCN)C(=O)N[C@@H](Cc4c[nH]c5ccccc45)C(=O)N[C@@H](CCSC)C(=O)N[C@@H](Cc4c[nH]c5ccccc45)C(=O)N[C@@H]([C@@H](C)O)C(=O)N3)NC2=O)C(=O)N[C@@H](CCCCN)C(=O)N[C@@H](CC(C)C)C(=O)N[C@@H](Cc2c[nH]c3ccccc23)C(=O)N1)[C@@H](C)CC)C(=O)O [JZTX-V, Jingzhaotoxin-V]",increase of affinity for JZTX-V vs WT Kv4.2,Kv4.2 I275A,~10 fold
same,pIC50,[1],7.28
same,reduction of sensitivity to the toxin vs WT Kv4.2,Kv4.2 V290A,~12 fold
same,inhibition of Ito1 current of NRVMs,Ito1 current of NRVMs,78 ± 4.32%
same,inhibition at 0.1 µM,"Kv4.2; HEK-293T, read-out: inhibition of Kv4.2 potassium current",> 90%
same,V1/2 of steady-state activation (G–V curve),"Kv4.2; in presence of 10 nM JZTX-V, +20 mV in absence",+30 mV
same,half-maximal inactivation potential (Vin1/2),"Kv4.2; in presence of 10 nM JZTX-V, −44.5 mV without",−50.0 mV
same,percentage of current inhibition kv4.1,kv4.1,25% (5µM) O
